The values below come from patent US20160333019A1, “SYNTHESIS AND FORMULATIONS OF PORPHYRIN COMPOUNDS” (Aeolus Sciences, Inc., priority 2013, published 2016).

The series in a line: Study 5: 75 mg/mL Formula (VI) in WFI at various pH under ICH storage temperatures. The series is classed as physicochemical. The conditions noted are these: for pH change: 75 mg/mL at pH 6. The protocol:
It was noticeable from Study 2 that drug stability was dependent on the pH. The lower the pH, the greater the chemical stability. […] An accelerated 60° C. storage temperature was also accessed in order to compare and generate a pH-stability profile of drug in water.
(§1) About 10 g of WFI was placed in the container including a stir bar. […] The pH was measured and the solution was mixed at room temperature for 16-24 hours. At the end of the 16-24 hour hold/mix, the pH of solution was adjusted to pH 4.0 with either HCl or NaOH and mixed for about 15 minutes. The solution was filtered through a PVDF, 0.22 μm filter by discarding about 1 mL prior to placing about 4-5 mL into each of four separate clean containers (A, B, C, D). The pH of the samples was then measured. Solution A was stored at 2-8° C., solution B at 25° C., solution C at 30° C. and solution D at 40° C. A sample was removed from each container after 3, 7 and 14 days the pH measured.
as §1, with “5.0” for “4.0”
as §1, with “6.0” for “4.0”

Where [1] appears, read: 75 mg/mL, 60° C. for 14 days, within pH profile range 4.1-6.5.

For the substance “[5,10,15,20-tetrakis(1,3-diethylimidazolium-2-yl)porphyrinato]manganese(III) chloride hydrate complex [Formula (VI)]”, under “75 mg/mL at pH 4 and 5, all storage conditions, after 14 days”, the pH variation was ≤ 0.1 pH unit. Moreover, the pH decrease (75 mg/mL at pH 5, 60° C., after 14 days) is on record as ~0.2 pH units. Besides, the pH change reads like this: (2-8° C., after 14 days) 0.7 pH units; (25° C., after 14 days) 0.5 pH units; (40° C., after 14 days) −0.1 pH units; (60° C., after 14 days) −0.9 pH units. Also, the “change of purity assays” value (75 mg/mL in water, samples at pH between 4.1 and 6.8, after 14 days) was “No significant changes”. For the same substance, the “decrease in drug purity assay” value (75 mg/mL, 60° C. for 14 days, increase of pH between 4.1 and 6.5) is ~5%. Also, the “increase of degradant at RRT 1.56-1.62” value under setting [1] was ~8 folds. Also, the “level of degradant at RRT 1.56-1.62” value under setting [1] is recorded as 0.4-3.2%. Also, the “decrease of purity assay” value (60° C. samples, between pH 4.1 and 5.2) was ~3%. The osmolality was 292 mOsm/kg (pH 4 sample, 60° C. storage); 277-280 mOsm/kg (pH 4 samples, 2-8, 25 and 40° C., after 14 days); 302 mOsm/kg (pH 5 sample, 60° C. storage); 273-275 mOsm/kg (pH 5 samples, 2-8, 25 and 40° C., after 14 days); 283 mOsm/kg (pH 6 sample, 60° C. storage); 269-272 mOsm/kg (pH 6 samples, 2-8, 25 and 40° C., after 14 days).
